Reference: US9447042B2, “Endoparasite control agent” (THE UNIVERSITY OF TOKYO, priority 2011, dated 2016)
Like-named read-outs stand apart in the source and are kept apart here.

Columns and labels:
[1] = target: T1, Ascaris suum succinate-ubiquinone reductase (mitochondrial complex II) (Ascaris suum, UniProt O44074+P92506+P92507); test: In vitro inhibitory activity on Ascaris suum succinate-ubiquinone reductase (mitochondrial complex II); format: biochemical; details: for Selectivity B/A: porcine IC50 (B) / Ascaris suum IC50 (A)
T1 construct: from tissue; host or cells: mitochondria from adult Ascaris suum muscle
T1 sequence (O44074 22-282): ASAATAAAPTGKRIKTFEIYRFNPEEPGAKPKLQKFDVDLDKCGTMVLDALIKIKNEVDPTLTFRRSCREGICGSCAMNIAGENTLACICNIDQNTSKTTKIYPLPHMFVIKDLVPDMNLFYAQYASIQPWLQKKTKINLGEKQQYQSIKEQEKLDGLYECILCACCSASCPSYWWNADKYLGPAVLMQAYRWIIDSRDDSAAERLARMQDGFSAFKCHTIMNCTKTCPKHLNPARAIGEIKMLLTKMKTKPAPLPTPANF
T1 sequence (P92506 32-188): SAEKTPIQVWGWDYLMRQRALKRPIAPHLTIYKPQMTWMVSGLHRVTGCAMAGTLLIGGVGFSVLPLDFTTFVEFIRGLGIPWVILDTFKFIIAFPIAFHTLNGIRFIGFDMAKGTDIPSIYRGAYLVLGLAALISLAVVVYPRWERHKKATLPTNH
T1 sequence (P92507 26-156): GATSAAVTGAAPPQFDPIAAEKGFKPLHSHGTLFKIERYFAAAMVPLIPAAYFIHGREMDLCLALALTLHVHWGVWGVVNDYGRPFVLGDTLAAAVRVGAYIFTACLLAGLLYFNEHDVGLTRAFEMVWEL
T1 sequence (Q33862 19-645 partner): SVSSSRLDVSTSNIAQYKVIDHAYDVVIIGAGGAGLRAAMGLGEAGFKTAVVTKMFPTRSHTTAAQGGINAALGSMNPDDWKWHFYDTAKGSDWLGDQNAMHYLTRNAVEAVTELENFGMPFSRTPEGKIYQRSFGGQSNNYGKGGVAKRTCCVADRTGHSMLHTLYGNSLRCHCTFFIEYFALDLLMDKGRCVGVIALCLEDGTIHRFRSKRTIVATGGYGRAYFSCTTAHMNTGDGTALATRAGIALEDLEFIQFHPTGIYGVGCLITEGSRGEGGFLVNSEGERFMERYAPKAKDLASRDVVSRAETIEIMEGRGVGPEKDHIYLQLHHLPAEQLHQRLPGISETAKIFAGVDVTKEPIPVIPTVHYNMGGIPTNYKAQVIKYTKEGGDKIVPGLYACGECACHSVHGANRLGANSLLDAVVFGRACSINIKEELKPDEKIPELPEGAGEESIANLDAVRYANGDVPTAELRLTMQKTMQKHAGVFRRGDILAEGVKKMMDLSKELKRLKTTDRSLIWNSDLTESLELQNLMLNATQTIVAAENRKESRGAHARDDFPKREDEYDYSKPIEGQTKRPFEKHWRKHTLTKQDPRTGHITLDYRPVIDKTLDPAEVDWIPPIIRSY
Procedure: In Vitro Measurement of Inhibitory Activity on Ascaris suum Succinate-Ubiquinone Reductase (Mitochondrial Complex II)
(§1) To a solution containing 50 mM potassium phosphate (pH 7.4) and 0.1% (w/v) sucrose monolaurate, an electron acceptor ubiquinone-2 (UQ2) was added at a final concentration of 60 μM, and the mixture was allowed to stand at 25° C. for 20 minutes. To this, potassium cyanide (final concentration: 2 mM) and mitochondria prepared from adult Ascaris suum muscle were added, and thorough mixing was done. To aliquots of the mixture, an inhibitor to be tested was added at various concentrations, and the mixtures were allowed to stand at 25° C. for 3 minutes. The enzymatic reaction was initiated by addition of potassium succinate (final concentration: 10 mM).
(§2) In the table, “-” indicates “not tested,” and “Ascaris suum IC50 value (A)” indicates an IC50 value (50% inhibitory concentration) for inhibition of succinate-ubiquinone reductase (mitochondrial complex II) of Ascaris suum. From the extent of inhibition of this respiratory enzyme, the parasite control activity can be estimated. “Porcine mitochondria IC50 value (B)” indicates an IC50 value for inhibition of succinate-ubiquinone reductase (mitochondrial complex II) of the host pig. From the extent of inhibition of this respiratory enzyme, the influence on the host can be estimated. A greater selectivity index B/A indicates a higher safety for the host.

Haemonchus contortus = test: Larval migration inhibition assay (LMIA) on Haemonchus contortus; format: in vivo; details: third-stage larvae
Procedure: In Vivo Activity on Haemonchus contortus
The test was conducted according to the larval migration inhibition assay (LMIA: Demeler et al., 2010). A larval suspension was prepared so as to contain 100 to 120 third-stage larvae of Haemonchus contortus per 20 μL, and then 20 μL of the larval suspension was added to each well on a breeding plate to which compound solutions adjusted to predetermined concentrations were previously added at […] each. The breeding plate was maintained for breeding at 28° C. for 24 hours. Meanwhile, to a plate for larval migration observation, 400 μL of a 1.5% agar solution was added and left to stand until coagulation. Then, the larvae were allowed to migrate through a sieve from the breeding plate to the plate for larval migration observation, and the plates were maintained for breeding at 28° C. for another 24 hours. The larvae which had migrated, and the larvae which had not migrated were counted, the percentage of migration inhibition was calculated, and the activity was graded based on the following criterion. In the table, “-” indicates “not tested.”
Percentage of Migration Inhibition

[2] = target: T2, Porcine succinate-ubiquinone reductase (mitochondrial complex II) (Sus scrofa, UniProt A5GZW8+D0VWV4+Q007T0); test: In vitro inhibitory activity on porcine succinate-ubiquinone reductase (mitochondrial complex II); format: biochemical, pig
T2 construct: from tissue; host or cells: mitochondria from porcine heart muscle
T2 sequence (Q007T0 29-280): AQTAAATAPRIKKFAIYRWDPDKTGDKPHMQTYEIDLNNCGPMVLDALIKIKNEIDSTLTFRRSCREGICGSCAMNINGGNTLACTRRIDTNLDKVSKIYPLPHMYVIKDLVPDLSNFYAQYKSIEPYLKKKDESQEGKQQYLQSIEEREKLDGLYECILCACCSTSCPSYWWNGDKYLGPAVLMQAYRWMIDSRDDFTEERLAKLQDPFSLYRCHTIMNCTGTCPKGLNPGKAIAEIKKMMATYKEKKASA
T2 sequence (D0VWV4 30-169): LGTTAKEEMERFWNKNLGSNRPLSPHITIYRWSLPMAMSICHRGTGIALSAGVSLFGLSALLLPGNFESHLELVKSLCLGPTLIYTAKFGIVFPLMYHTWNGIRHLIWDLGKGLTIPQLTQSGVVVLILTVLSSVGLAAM
T2 sequence (A5GZW8 57-159 limits assumed): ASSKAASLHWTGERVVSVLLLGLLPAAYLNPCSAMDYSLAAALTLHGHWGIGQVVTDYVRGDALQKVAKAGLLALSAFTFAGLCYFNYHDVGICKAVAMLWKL
T2 sequence (Q0QF01 43-664 partner): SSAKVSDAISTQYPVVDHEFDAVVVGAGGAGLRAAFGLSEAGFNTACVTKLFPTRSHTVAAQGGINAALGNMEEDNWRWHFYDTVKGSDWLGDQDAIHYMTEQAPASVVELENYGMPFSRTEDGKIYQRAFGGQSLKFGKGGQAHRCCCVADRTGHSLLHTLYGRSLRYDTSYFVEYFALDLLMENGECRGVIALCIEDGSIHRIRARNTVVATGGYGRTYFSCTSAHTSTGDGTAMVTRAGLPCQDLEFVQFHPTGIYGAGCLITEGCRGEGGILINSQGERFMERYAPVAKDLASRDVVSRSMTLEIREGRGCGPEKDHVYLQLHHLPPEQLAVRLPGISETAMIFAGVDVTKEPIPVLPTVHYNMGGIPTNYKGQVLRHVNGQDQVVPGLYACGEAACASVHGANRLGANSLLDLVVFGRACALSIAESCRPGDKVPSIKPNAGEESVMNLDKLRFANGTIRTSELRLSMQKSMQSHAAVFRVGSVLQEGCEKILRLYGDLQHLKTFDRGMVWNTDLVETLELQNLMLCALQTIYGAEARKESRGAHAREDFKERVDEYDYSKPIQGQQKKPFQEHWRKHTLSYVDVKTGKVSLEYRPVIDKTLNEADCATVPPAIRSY
Procedure: In Vitro Measurement of Inhibitory Activity on Porcine Succinate-Ubiquinone Reductase (Mitochondrial Complex II)
as §1, with “porcine heart” for “adult Ascaris suum”
as §2

[3] = at 9 μM, porcine heart muscle mitochondria
[4] = mitochondria from adult Ascaris suum muscle, read-out: Ascaris suum IC50 value (A)
[5] = at 90 μM, porcine heart muscle mitochondria
[6] = mitochondria from porcine heart muscle, read-out: Porcine mitochondria IC50 value (B)

IC50 [1, 4] [nM]	Porcine mitochondria inhibition at 90 μM [2, 5]	SMILES	IC50 [1] [nM]	Selectivity B/A [1]	other results
–	–	O=C(NCCOc1ccc(Cl)cc1Cl)c1ccccc1C(F)(F)F [Compound 4-1]	3.44	–	Percentage of migration inhibition (grade) (Haemonchus contortus; 0.1 ppm): C (10 to 39%); Percentage of migration inhibition (grade) (Haemonchus contortus; 1 ppm): C (10 to 39%); Percentage of migration inhibition (grade) (Haemonchus contortus; 10 ppm): C (10 to 39%)
8.34	–	O=C(NCCCSc1ccc(Cl)cc1Cl)c1ccccc1C(F)(F)F [Compound 4-6]	–	>1079	Porcine mitochondria inhibition at 9 μM [2, 3]: no inhibition at 9 μM
14	no inhibition at 90 μM	CC(NC(=O)c1ccccc1C(F)(F)F)c1ccc(Cl)cc1Cl (stereo not drawn) [Compound 2-7]	–	>6430	–
8.36	16% at 90 μM	O=C(NCCCOc1ccc(Cl)cc1Cl)c1ccccc1C(F)(F)F [Compound 4-4]	–	>10770	–
127	no inhibition at 90 μM	CC(C)(NC(=O)c1ccccc1C(F)(F)F)c1ccccc1 [Compound 2-3]	–	>709	–
3.83	–	Cc1cc(CNC(=O)c2ccccc2C(F)(F)F)ccc1-c1ccc(OC(F)(F)F)cc1 [Compound 2-5]	–	>2350	Porcine mitochondria inhibition at 9 μM [2, 3]: no inhibition at 9 μM
–	–	O=C(NCCc1ncc(C(F)(F)F)cc1Cl)c1ccccc1C(F)(F)F [Compound 3-7]	1.6	56250	IC50 [2]: 90000 nM; Percentage of migration inhibition (grade) (Haemonchus contortus; 0.1 ppm): C (10 to 39%); Percentage of migration inhibition (grade) (Haemonchus contortus; 1 ppm): C (10 to 39%); Percentage of migration inhibition (grade) (Haemonchus contortus; 10 ppm): C (10 to 39%); Percentage of migration inhibition (grade) (Haemonchus contortus; 100 ppm): B (40 to 69%)
–	–	CC(COc1ccc(Cl)cc1Cl)NC(=O)c1ccccc1C(F)(F)F (stereo not drawn) [Compound 4-2]	5.15	–	–
28.3	10% at 90 μM	O=C(NCc1ccc(Cl)cc1Cl)c1ccccc1C(F)(F)F [Compound 2-6]	–	>3180	Percentage of migration inhibition (grade) (Haemonchus contortus; 0.1 ppm): C (10 to 39%); Percentage of migration inhibition (grade) (Haemonchus contortus; 1 ppm): C (10 to 39%); Percentage of migration inhibition (grade) (Haemonchus contortus; 10 ppm): C (10 to 39%)
38.2	no inhibition at 90 μM	CC(NC(=O)c1ccccc1C(F)(F)F)c1ccc(Cl)cc1 (stereo not drawn) [Compound 2-8]	–	>2360	–
–	–	Cc1ccc(OCCNC(=O)c2ccccc2C(F)(F)F)c(C)c1 [Compound 4-3]	1.98	–	–
–	–	O=C(NCCCc1ccc(Cl)cc1Cl)c1ccccc1C(F)(F)F [Compound 4-7]	1.78	57870	IC50 [2, 6]: 103000 nM; Percentage of migration inhibition (grade) (Haemonchus contortus; 0.1 ppm): C (10 to 39%); Percentage of migration inhibition (grade) (Haemonchus contortus; 1 ppm): C (10 to 39%); Percentage of migration inhibition (grade) (Haemonchus contortus; 10 ppm): C (10 to 39%); Percentage of migration inhibition (grade) (Haemonchus contortus; 100 ppm): B (40 to 69%)
–	–	CC(CCc1ccc(Cl)cc1Cl)NC(=O)c1ccccc1C(F)(F)F (stereo not drawn) [Compound 4-8]	2.61	>3448	inhibition at 9 µM [2, 3]: 5%
–	–	O=C(NCCc1c(Cl)cc(C(F)(F)F)cc1Cl)c1ccccc1C(F)(F)F [Compound 1-110]	4.07	>2460	Porcine mitochondria inhibition at 10 μM ([2]; at 10 μM, porcine heart muscle mitochondria): no inhibition at 10 μM
–	–	CC(Cc1ccc(Cl)c(Cl)c1)NC(=O)c1ccccc1C(F)(F)F (stereo not drawn) [Compound 1-81]	4.8	>18800	inhibition at 90 µM [2, 5]: 10%
–	–	CC(C)(Cc1ccc(Cl)c(Cl)c1)NC(=O)c1ccccc1C(F)(F)F [Compound 1-88]	12	–	–
6.07	11% at 90 μM	Cc1ccc(SCCCNC(=O)c2ccccc2C(F)(F)F)c(C)c1 [Compound 4-5]	–	>14830	–
–	–	CC(Cc1ccc(F)cc1F)NC(=O)c1ccccc1C(F)(F)F (stereo not drawn) [Compound 1-64]	9	>9150	Porcine mitochondria inhibition at 9 μM [2, 3]: no inhibition at 9 μM
70.5	no inhibition at 90 μM	O=C(NC(c1ccc(Cl)cc1)C1CC1)c1ccccc1C(F)(F)F (stereo not drawn) [Compound 2-4]	–	>1280	–
5.47	–	CC(C)(C)c1ccc(CNC(=O)c2ccccc2C(F)(F)F)cc1 [Compound 2-1]	–	20295	IC50 [2, 6]: 111000 nM; Percentage of migration inhibition (grade) (Haemonchus contortus; 0.1 ppm): C (10 to 39%); Percentage of migration inhibition (grade) (Haemonchus contortus; 1 ppm): B (40 to 69%)
–	–	CC(Cc1ccc(Cl)cc1Cl)NC(=O)c1ccccc1C(F)(F)F (stereo not drawn) [Compound 1-32]	2.15	>4190	Porcine mitochondria inhibition at 9 μM [2, 3]: no inhibition at 9 μM; Percentage of migration inhibition (grade) (Haemonchus contortus; 0.1 ppm): C (10 to 39%); Percentage of migration inhibition (grade) (Haemonchus contortus; 1 ppm): C (10 to 39%); Percentage of migration inhibition (grade) (Haemonchus contortus; 10 ppm): B (40 to 69%)

SMILES	IC50 [1, 4] [nM]	Porcine mitochondria inhibition at 90 μM [2, 5]	IC50 [1] [nM]	Selectivity B/A [1]	other results
O=C(NCCc1ccccc1)c1ccccc1C(F)(F)F [Compound 1-111]	–	no inhibition at 90 μM	13.1	>6870	–
O=C(NCCc1ccc(Cl)cc1)c1ccccc1C(F)(F)F [Compound 1-3]	–	no inhibition at 90 μM	1.21	>27000	–
Cc1ccc(CCNC(=O)c2ccccc2C(F)(F)F)c(C)c1 [Compound 1-27]	–	no inhibition at 90 μM	1.69	>53300	–
O=C(NCCc1ccc(Cl)cc1Cl)c1ccccc1C(F)(F)F [Compound 1-16]	–	no inhibition at 90 μM	3.34	>74400	Percentage of migration inhibition (grade) (Haemonchus contortus; 0.1 ppm): C (10 to 39%); Percentage of migration inhibition (grade) (Haemonchus contortus; 1 ppm): C (10 to 39%); Percentage of migration inhibition (grade) (Haemonchus contortus; 10 ppm): C (10 to 39%); Percentage of migration inhibition (grade) (Haemonchus contortus; 100 ppm): B (40 to 69%)
CC(C)(CNC(=O)c1ccccc1C(F)(F)F)c1ccc(Cl)cc1Cl [Compound 1-112]	–	no inhibition at 90 μM	1.5	>60000	–
